Data reported in PMC6199744, “Development of Chemical Proteomics for the Folateome and Analysis of the Kinetoplastid Folateome” (ACS Infectious Diseases, 2018).

What was measured:
TB927.8.6460 = test: Multitargeted bead mixture competition; format: binding, T. brucei; details: multitargeted bead mixture; free ligand 100 μM; T. brucei lysate; TB927.8.6460
[1] = test system: PEPTIDYL-PROLYL CIS-TRANS ISOMERASE (CYCLOPHILIN- (TB427TMP.211.1350)); test: Multitargeted bead mixture competition; format: binding; details: free ligand 100 μM, T. brucei lysate
TB11.03.0290 = test: Multitargeted bead mixture competition; format: binding, T. brucei; details: multitargeted bead mixture; free ligand 100 μM; T. brucei lysate; TB11.03.0290
[2] = biological target: PTERIDINE REDUCTASE (TB927.8.2210) (Trypanosoma brucei brucei, UniProt O76290); test: Multitargeted bead mixture competition; format: binding, T. brucei; details: T. brucei lysate
[3] = test system: LMJF.26.2560 (hypothetical conserved ATP binding protein); test: Individual MTX bead pull down; details: L. major
[4] = test system: HYPOTHETICAL PROTEIN, CONSERVED (TB427.03.2670); test: Multitargeted bead mixture competition; format: binding; details: free ligand 100 μM, T. brucei lysate
TB427.04.1870 = test: Multitargeted bead mixture competition; format: binding; details: free ligand 100 μM, T. brucei lysate
[5] = test system: ACETYLTRANSFERASE, PUTATIVE (Tb427.08.3310); test: Multitargeted bead mixture competition; format: binding; details: free ligand 100 μM, T. brucei lysate
[6] = test system: PROTEIN KINASE, PUTATIVE (Tb427.03.1570); test: Multitargeted bead mixture competition; format: binding; details: free ligand 100 μM, T. brucei lysate
DHFR-TS = DHFR-TS (Trypanosoma brucei brucei, UniProt Q27783); test: Individual bead pull down with competing free ligand; details: competing free ligand 100 μM; bead = immobilized compound of the row; T. brucei lysate; read-out: % Inhibition of protein binding to bead, DHFR-TS, T. brucei
Source text: (§1) Antifolate compounds were immobilized onto NHS-activated sepharose beads/reverse sepharose beads through amide coupling via either an amino or carboxyl group (see Figure 3). The reaction was monitored by observing the disappearance of test compound by LCMS, after which the unreacted coupling sites were capped with NHS-acetate or aminoethanol.
(§2) Folate metabolizing enzymes are not highly abundant proteins,[19],[20] potentially making their identification by MS difficult. Beads will not only pull down the low abundant high affinity binders but also attract highly abundant, low affinity binders or so-called nonspecific binders. Sometimes, the nonspecific high abundant proteins can mask true binders. The target identification approach used in this study overcomes this issue by performing competition studies. Various concentrations of the free unmodified inhibitor (test compound) were preincubated with the lysate, prior to addition of the beads derivatized with immobilized compounds. Following washing of the bound proteins from the beads and tryptic digest, the peptides were labeled using the TMTs and then pooled. Differences in peptide abundance were analyzed by fragmentation of the isotope-coded isobaric tags in the MS/MS spectra (Figure 5).[9],[11],[12],[21] While the competition experiments with test compound confirm specific binding, it is also possible that some proteins will have a stronger binding interaction with the derivatized beads than the competing test compound, due to subtle differences in the interactions between the immobilized compound and the test compound with the target protein.

PTR-1 = PTR-1 (Trypanosoma brucei brucei, UniProt O76290); test: as above; details: competing free ligand 100 μM; bead = immobilized compound of the row; T. brucei lysate; read-out: % Inhibition of protein binding to bead, PTR-1, T. brucei
Source text: as §1, §2

[7] = test system: CHOLINE KINASE (TB427TMP.18.0017); test: Multitargeted bead mixture competition; format: binding, T. brucei; details: multitargeted bead mixture; free ligand 100 μM; T. brucei lysate; TB427TMP.18.0017 CHOLINE KINASE
[8] = test system: NGG1 INTERACTING FACTOR 3-LIKE (Tb427tmp.02.5000); format: binding; details: multitargeted bead mixture; free ligand 100 μM; T. brucei lysate; Tb427tmp.02.5000
[9] = biological target: GLYCERALDEHYDE 3-PHOSPHATE DEHYDROGENASE, GLYCOSOM (TB427.06.4300) (Trypanosoma brucei brucei, UniProt P22512); test: Multitargeted bead mixture competition; format: binding, T. brucei
[10] = test system: SUCCINYL-COA SYNTHETASE ALPHA SUBUNIT, PUTATIVE (Tb427.03.2230); test: Multitargeted bead mixture competition; format: binding; details: free ligand 100 μM, T. brucei lysate
[11] = test system: HYPOTHETICAL PROTEIN, CONSERVED (TB427.05.3680); test: Multitargeted bead mixture competition; format: binding; details: free ligand 100 μM, T. brucei lysate
[12] = test system: LMJF.30.2970 (glyceraldehyde-3-phosphate dehydrogenase, GAPDH); test: Individual MTX bead pull down; format: binding; details: L. major
TB927.7.1340 = test: Multitargeted bead mixture competition; format: binding; details: free ligand 100 μM, T. brucei lysate
[13] = test system: BRANCHED-CHAIN AMINO ACID AMINOTRANSFERASE, PUTATI (TB427.02.4590); test: Multitargeted bead mixture competition; format: binding; details: free ligand 100 μM, T. brucei lysate
[14] = test system: HYPOTHETICAL PROTEIN, CONSERVED (Tb427.10.6100); test: Multitargeted bead mixture competition; format: binding; details: free ligand 100 μM, T. brucei lysate
[15] = test system: IRON/ASCORBATE OXIDOREDUCTASE FAMILY PROTEIN, PUTA (Tb427.02.6180); test: Multitargeted bead mixture competition; format: binding, T. brucei; details: multitargeted bead mixture; free ligand 100 μM; T. brucei lysate; Tb427.02.6180
[16] = biological target: DIHYDROFOLATE REDUCTASE-T[…] (TB427.07.5480) (Trypanosoma brucei brucei, UniProt Q27783); test: Multitargeted bead mixture competition; format: binding; details: T. brucei lysate
TB09.211.1690 = test: Multitargeted bead mixture competition; format: binding; details: free ligand 100 μM, T. brucei lysate
methylene-THF-reductase = methylene-THF-reductase (Homo sapiens, UniProt P42898); test: Multitargeted bead mixture competition, HeLa cell extract; format: binding; details: bead mixture; HeLa cell extract
[17] = test system: PHOSPHATIDYLINOSITOL-4-PHOSPHATE 5-KINASE, PUTATIV (TB427.10.3890); test: Multitargeted bead mixture competition; format: binding; details: free ligand 100 μM, T. brucei lysate
TB927.8.6760 = test: Multitargeted bead mixture competition; format: binding; details: free ligand 100 μM, T. brucei lysate

Chain of PTERIDINE REDUCTASE (TB927.8.2210) (O76290 entry or part of it): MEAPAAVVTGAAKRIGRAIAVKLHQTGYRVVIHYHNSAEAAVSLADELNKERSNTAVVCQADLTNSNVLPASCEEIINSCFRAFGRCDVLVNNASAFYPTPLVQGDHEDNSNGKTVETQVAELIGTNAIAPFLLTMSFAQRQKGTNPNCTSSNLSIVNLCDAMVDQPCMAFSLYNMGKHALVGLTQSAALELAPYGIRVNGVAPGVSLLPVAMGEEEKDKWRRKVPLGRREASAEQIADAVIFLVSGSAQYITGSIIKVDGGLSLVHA
Chain of UniProt P22512 (P22512 whole entry): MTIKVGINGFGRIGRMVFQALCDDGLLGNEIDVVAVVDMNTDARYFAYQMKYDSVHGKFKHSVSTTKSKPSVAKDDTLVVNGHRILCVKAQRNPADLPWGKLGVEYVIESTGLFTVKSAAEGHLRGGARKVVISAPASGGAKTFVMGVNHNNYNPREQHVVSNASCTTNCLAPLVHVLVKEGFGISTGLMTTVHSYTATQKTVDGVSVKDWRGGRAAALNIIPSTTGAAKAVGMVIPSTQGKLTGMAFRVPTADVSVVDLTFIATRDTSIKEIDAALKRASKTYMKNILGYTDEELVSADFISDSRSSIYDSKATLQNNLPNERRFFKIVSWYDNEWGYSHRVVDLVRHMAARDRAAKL
Chain of UniProt Q27783 (Q27783 whole entry): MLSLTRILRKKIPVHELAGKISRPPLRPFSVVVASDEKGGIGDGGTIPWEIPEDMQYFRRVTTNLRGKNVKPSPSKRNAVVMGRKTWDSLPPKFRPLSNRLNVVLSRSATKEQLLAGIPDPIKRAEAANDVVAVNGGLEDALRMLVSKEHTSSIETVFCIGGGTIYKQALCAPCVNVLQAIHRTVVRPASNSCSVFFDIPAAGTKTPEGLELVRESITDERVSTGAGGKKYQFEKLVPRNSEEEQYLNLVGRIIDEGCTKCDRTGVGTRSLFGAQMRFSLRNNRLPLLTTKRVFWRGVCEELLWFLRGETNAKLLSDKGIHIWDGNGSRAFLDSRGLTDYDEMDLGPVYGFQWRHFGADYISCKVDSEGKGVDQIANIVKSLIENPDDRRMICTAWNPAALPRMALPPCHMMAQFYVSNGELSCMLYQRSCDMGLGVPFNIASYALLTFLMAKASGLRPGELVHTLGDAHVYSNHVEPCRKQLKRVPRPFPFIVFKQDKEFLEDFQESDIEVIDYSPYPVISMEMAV
Chain of PTR-1 (O76290 entry or part of it): as the sequence (O76290 entry or part of it) above
Chain of methylene-THF-reductase (P42898 whole entry): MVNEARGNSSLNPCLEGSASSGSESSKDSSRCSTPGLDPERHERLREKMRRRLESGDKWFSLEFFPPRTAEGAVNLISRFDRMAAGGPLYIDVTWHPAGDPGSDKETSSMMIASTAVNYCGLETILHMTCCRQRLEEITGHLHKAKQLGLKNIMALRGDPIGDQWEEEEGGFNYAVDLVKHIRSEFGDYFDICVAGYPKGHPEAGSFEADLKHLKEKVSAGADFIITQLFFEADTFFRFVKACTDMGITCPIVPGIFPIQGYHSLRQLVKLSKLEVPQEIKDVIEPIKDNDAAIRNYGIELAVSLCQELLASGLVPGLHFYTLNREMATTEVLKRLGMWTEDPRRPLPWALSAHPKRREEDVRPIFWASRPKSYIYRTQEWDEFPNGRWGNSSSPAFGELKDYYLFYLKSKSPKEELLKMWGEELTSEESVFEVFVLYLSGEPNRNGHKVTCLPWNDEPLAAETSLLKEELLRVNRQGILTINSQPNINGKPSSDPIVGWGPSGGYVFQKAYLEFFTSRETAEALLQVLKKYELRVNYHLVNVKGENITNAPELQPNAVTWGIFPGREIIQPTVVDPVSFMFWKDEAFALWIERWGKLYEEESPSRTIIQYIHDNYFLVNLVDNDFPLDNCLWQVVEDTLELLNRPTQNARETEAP
Chain of DHFR-TS (Q27783 whole entry): as the sequence (Q27783 whole entry) above

CN(Cc1cnc2nc(N)nc(N)c2n1)c1ccc(C(=O)N[C@@H](CCC(=O)O)C(=O)O)cc1 [MTX, methotrexate]
percentage of competition from bead binding (TB927.8.6460): 54% | percentage of competition from bead binding [1]: 50% | percentage of competition from bead binding (TB11.03.0290): 57% | competition for PTR1 (Figure 6) ([2]; bead mixture, compound 100 μM): competed for PTR1 | percentage of competition from bead binding ([2]; multitargeted bead mixture, free ligand 100 μM, TB927.8.2210 PTERIDINE REDUCTASE): 93% | binding of LMJF.26.2560 to MTX [3]: bind to MTX | percentage of competition from bead binding [4]: 50% | percentage of competition from bead binding (TB427.04.1870): 58% | percentage of competition from bead binding [5]: 31% | percentage of competition from bead binding [6]: 9% | inhibition at 100 µM (DHFR-TS): 95% | inhibition at 100 µM (PTR-1): 90% | percentage of competition from bead binding [7]: 57% | percentage of competition from bead binding [8]: 31% | binding to GAPDH (Tb427.06.4300) ([9]; bead mixture, T. brucei lysates): bound | percentage of competition from bead binding ([9]; multitargeted bead mixture, free ligand 100 μM, T. brucei lysate, TB427.06.4300 GAPDH): 56% | percentage of competition from bead binding [10]: 18% | percentage of competition from bead binding [11]: 69% | binding of LMJF.30.2970 (GAPDH) to MTX [12]: bind to MTX | percentage of competition from bead binding (TB927.7.1340): 51% | percentage of competition from bead binding [13]: 34% | percentage of competition from bead binding [14]: 23% | percentage of competition from bead binding [15]: 17% | competition for DHFR-TS (Figure 6) ([16]; bead mixture, compound 100 μM): compete for DHFR-TS | percentage of competition from bead binding ([16]; multitargeted bead mixture, free ligand 100 μM, TB427.07.5480 DHFR-TS): 85% | percentage of competition from bead binding (TB09.211.1690): 51% | inhibition, methylene-THF-reductase (methylene-THF-reductase): 77% | percentage of competition from bead binding [17]: 56% | percentage of competition from bead binding (TB927.8.6760): 50%
